In one test the test system is MC5R. Conditions: at 100 μM concentrations, β-galactosidase assay; cited from earlier work.
In test [1] the target is T1, mMC5R (Mus musculus, UniProt P41149). Put plainly: cell-based.
Test [2] concerns the target T2, mMC4R (Mus musculus, UniProt P56450). The conditions noted are these: antagonist potency relative to 1.
The target of test [3] is T3, mMC3R (Mus musculus, UniProt P33033). Put plainly: AlphaScreen cAMP assay, antagonist activity. Conditions: Schild paradigm, NDP-MSH.
The next test has as its target mMC1R (Mus musculus, UniProt Q01727). Put plainly: AlphaScreen cAMP assay, agonist activity. Conditions: up to 100 μM concentrations. On the technique in general: In Alpha technology, singlet oxygen from a donor bead excites a nearby acceptor bead.
Test [4] has as its target T3, mMC3R. The test can be described thus: AlphaScreen cAMP assay, agonist activity. Conditions: up to 100 μM concentrations.
Test [5] has as its target T2, mMC4R. Put plainly: AlphaScreen cAMP assay, agonist activity. The conditions noted are these: up to 100 μM concentrations.
Test [6] has as its target T1, mMC5R.
Test [7] deals with mouse melanocortin-5 receptor (mouse) (UniProt P41149).
Test [8] has as its target mouse melanocortin-1 receptor (mouse) (UniProt Q01727).
Test [9] concerns the target mouse melanocortin-4 receptor (mouse) (UniProt P56450).
Test [10] deals with mouse melanocortin-3 receptor (mouse) (UniProt P33033).

The values below come from publication PMC5645029 (Journal of medicinal chemistry, 2017).

Entries after “also recorded” stand apart in the source; their conditions may differ. Non-standard residues stand in square brackets, D forms with d. Residues, ends and D or L forms follow the SMILES beside them. A value given as a limit tells only on which side of the number the result lay.

Sequence of mouse melanocortin-5 receptor (mouse) (P41149 whole entry): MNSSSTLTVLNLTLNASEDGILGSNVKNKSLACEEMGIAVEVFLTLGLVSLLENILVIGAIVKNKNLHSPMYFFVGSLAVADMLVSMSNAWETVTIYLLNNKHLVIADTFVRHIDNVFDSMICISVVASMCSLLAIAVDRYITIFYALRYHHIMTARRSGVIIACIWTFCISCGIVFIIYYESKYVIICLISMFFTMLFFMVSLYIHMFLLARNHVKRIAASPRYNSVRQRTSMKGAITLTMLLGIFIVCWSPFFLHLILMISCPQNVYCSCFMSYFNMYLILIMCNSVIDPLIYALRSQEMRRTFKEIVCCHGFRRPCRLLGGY
T1 sequence (P41149 whole entry): as above
Sequence of mouse melanocortin-4 receptor (mouse) (P56450 whole entry): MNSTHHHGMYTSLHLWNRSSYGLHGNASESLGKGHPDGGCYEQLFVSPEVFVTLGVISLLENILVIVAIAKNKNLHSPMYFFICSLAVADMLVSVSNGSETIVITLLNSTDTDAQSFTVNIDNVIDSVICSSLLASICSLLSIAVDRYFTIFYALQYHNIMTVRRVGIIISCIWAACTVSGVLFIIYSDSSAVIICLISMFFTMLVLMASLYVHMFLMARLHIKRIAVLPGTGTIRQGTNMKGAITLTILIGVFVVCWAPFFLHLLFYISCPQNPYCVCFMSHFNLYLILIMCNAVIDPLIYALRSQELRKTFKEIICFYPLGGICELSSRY
T2 sequence (P56450 whole entry): as above
Sequence of mouse melanocortin-3 receptor (mouse) (P33033 whole entry): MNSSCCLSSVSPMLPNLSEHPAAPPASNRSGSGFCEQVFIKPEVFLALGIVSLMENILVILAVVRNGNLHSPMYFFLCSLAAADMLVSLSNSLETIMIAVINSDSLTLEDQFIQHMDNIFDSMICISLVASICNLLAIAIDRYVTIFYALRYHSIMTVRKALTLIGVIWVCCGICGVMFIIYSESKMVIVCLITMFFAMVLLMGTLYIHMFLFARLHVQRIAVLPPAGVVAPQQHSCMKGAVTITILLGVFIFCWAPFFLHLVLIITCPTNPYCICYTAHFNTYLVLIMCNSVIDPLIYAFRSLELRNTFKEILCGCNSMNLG
T3 sequence (P33033 whole entry): as above
Sequence of mouse melanocortin-1 receptor (mouse) (Q01727 whole entry): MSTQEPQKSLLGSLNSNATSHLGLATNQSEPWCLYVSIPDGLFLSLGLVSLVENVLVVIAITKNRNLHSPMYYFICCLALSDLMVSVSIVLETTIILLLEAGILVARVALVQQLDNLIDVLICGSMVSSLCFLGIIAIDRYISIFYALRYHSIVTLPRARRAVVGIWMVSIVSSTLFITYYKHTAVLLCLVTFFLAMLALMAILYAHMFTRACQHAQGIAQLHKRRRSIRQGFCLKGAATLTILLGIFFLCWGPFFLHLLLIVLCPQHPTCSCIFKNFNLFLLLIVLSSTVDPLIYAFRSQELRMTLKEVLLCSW
Sequence of mMC1R (Q01727 whole entry): as above

With `C[C@@H]1NC(=O)[C@H](CC(N)=O)NC(=O)[C@H](Cc2ccccc2)NC(=O)[C@H](Cc2ccccc2)NC(=O)[C@H](CCCNC(=N)N)NC(=O)[C@@H]2CCCN2C(=O)[C@H]2CCCN2C(=O)[C@H](Cc2ccccc2)NC1=O` [Peptide 1, c[Pro-Arg-Phe-Phe-Asn-Ala-Phe-DPro]], the “activity at the MC5R” value in the test on MC5R is on record as “no activity”.
As a reminder, the EC50 is the concentration giving half of the maximal effect. Lower therefore signals greater potency. `C[C@@H]1NC(=O)[C@H](CN)NC(=O)[C@H](Cc2ccccc2)NC(=O)[C@H](Cc2ccccc2)NC(=O)[C@H](CCCNC(=N)N)NC(=O)[C@@H]2CCCN2C(=O)[C@H]2CCCN2C(=O)[C@H](Cc2ccccc2)NC1=O` [Peptide 2, c[Pro-Arg-Phe-Phe-Dap-Ala-Phe-DPro]] came in with a 50% effective concentration (EC50) at mMC5R [1] of 0.06 µM. Further, the “activity at the MC5R” value in the test with MC5R is “no activity”.
For the molecule `C[C@@H]1NC(=O)[C@H](C)NC(=O)[C@H](Cc2ccccc2)NC(=O)[C@H](Cc2ccccc2)NC(=O)[C@H](CCCNC(=N)N)NC(=O)[C@@H]2CCCN2C(=O)[C@H]2CCCN2C(=O)[C@H](Cc2ccccc2)NC1=O` [Peptide 3, c[Pro-Arg-Phe-Phe-Ala-Ala-Phe-DPro]], at mMC4R [2], the “fold less potent at the MC4R compared to 1” value was 8 fold. Besides, the concentration for a half-maximal effect (EC50) on mMC5R [1] is 0.25 µM. The “antagonist activity at the MC3R (in words)” value (from here on “antagonist activity”) on mMC3R [3] is “did not possess antagonist activity”.
In the case of `CC[C@@H]1NC(=O)[C@H](Cc2ccccc2)NC(=O)[C@H](Cc2ccccc2)NC(=O)[C@H](CCCNC(=N)N)NC(=O)[C@@H]2CCCN2C(=O)[C@H]2CCCN2C(=O)[C@H](Cc2ccccc2)NC(=O)[C@H](C)NC1=O` [Peptide 4, c[Pro-Arg-Phe-Phe-Abu-Ala-Phe-DPro]], the concentration for a half-maximal effect (EC50) at mMC5R [1] came to 0.16 µM. The “antagonist activity” value on mMC3R [3] was “did not possess antagonist activity”.
For `C[C@@H]1NC(=O)[C@H](CC(=O)O)NC(=O)[C@H](Cc2ccccc2)NC(=O)[C@H](Cc2ccccc2)NC(=O)[C@H](CCCNC(=N)N)NC(=O)[C@@H]2CCCN2C(=O)[C@H]2CCCN2C(=O)[C@H](Cc2ccccc2)NC1=O` [Peptide 7, c[Pro-Arg-Phe-Phe-Asp-Ala-Phe-DPro]], the “agonist activity at the MC1R (in words)” value at mMC1R is “no agonist activity”. The “agonist activity at the MC3R (in words)” value on mMC3R [4] is given as “no agonist activity”. Further, the “agonist activity at the MC4R (in words)” value on mMC4R [5] is “no agonist activity”. Moreover, at mMC3R [3], the “antagonist activity” value is given as “did not possess antagonist activity”.
`C[C@@H]1NC(=O)[C@H](CCC(=O)O)NC(=O)[C@H](Cc2ccccc2)NC(=O)[C@H](Cc2ccccc2)NC(=O)[C@H](CCCNC(=N)N)NC(=O)[C@@H]2CCCN2C(=O)[C@H]2CCCN2C(=O)[C@H](Cc2ccccc2)NC1=O` [Peptide 8, c[Pro-Arg-Phe-Phe-Glu-Ala-Phe-DPro]]: the “fold less potent at the MC4R compared to 1” value on mMC4R [2] is given as 16 fold. Moreover, on mMC3R [4], the “agonist activity at the MC3R (in words)” value was “did not result in measurable activity”. The 50% effective concentration (EC50) at mMC5R [1] was found to be 0.7 µM. Moreover, the “antagonist activity” value at mMC3R [3] is on record as “did not result in measurable activity”.
Regarding `N=C(N)NCCC[C@@H]1NC(=O)[C@@H]2CCCN2C(=O)[C@H]2CCCN2C(=O)[C@H](Cc2ccccc2)NC(=O)[C@H](CC(=O)O)NC(=O)[C@H](CC(N)=O)NC(=O)[C@H](Cc2ccccc2)NC(=O)[C@H](Cc2ccccc2)NC1=O` [Peptide 16, c[Pro-Arg-Phe-Phe-Asn-Asp-Phe-DPro]] (cyclo(RFFNDF[dP]P)), on mMC3R [4], the “agonist activity at the MC3R (in words)” value is on record as “did not result in observable agonist or antagonist activity”. Also, the “agonist activity at the MC4R (in words)” value at mMC4R [5] was “did not result in observable agonist or antagonist activity”. Moreover, the “antagonist activity” value on mMC3R [3] is reported as “did not result in observable agonist or antagonist activity; also recorded: did not possess antagonist activity”.
For `N=C(N)NCCC[C@@H]1NC(=O)[C@@H]2CCCN2C(=O)[C@H]2CCCN2C(=O)[C@H](Cc2ccccc2)NC(=O)[C@H](CCC(=O)O)NC(=O)[C@H](CC(N)=O)NC(=O)[C@H](Cc2ccccc2)NC(=O)[C@H](Cc2ccccc2)NC1=O` [Peptide 17, c[Pro-Arg-Phe-Phe-Asn-Glu-Phe-DPro]] (cyclo(RFFNEF[dP]P)), the “agonist activity at the MC3R (in words)” value at mMC3R [4] was “did not result in observable agonist or antagonist activity”. Besides, the “agonist activity at the MC4R (in words)” value on mMC4R [5] is reported as “did not result in observable agonist or antagonist activity”. Besides, the “antagonist activity” value at mMC3R [3] is recorded as “did not result in observable agonist or antagonist activity; also recorded: did not possess antagonist activity”. Besides, the “activity at the MC5R (in words)” value at mMC5R [6] is “no activity”.
For “c[Pro-Arg-Phe-Phe-Nle-Ala-Phe-DPro] (peptide)”, the agonist EC50 (cAMP AlphaScreen, HEK293 cells stably expressing the receptor) in test [7], in test [8], in [9] and in test [10] was above 100 µM each time.

B1: c[Pro-Arg-Phe-Phe-Asn-Leu-Phe-DPro] (peptide)
peptide: cyclo(PRFFNLF[dP])
SMILES: CC(C)C[C@@H]1NC(=O)[C@H](CC(N)=O)NC(=O)[C@H](Cc2ccccc2)NC(=O)[C@H](Cc2ccccc2)NC(=O)[C@H](CCCNC(=N)N)NC(=O)[C@@H]2CCCN2C(=O)[C@H]2CCCN2C(=O)[C@H](Cc2ccccc2)NC1=O
B1 gave an agonist EC50 (cAMP AlphaScreen, HEK293 cells stably expressing the receptor) in test [7] above 100 µM.

B2: c[Pro-Arg-Phe-Phe-Asn-His-Phe-DPro] (peptide)
peptide: cyclo(PRFFNHF[dP])
SMILES: N=C(N)NCCC[C@@H]1NC(=O)[C@@H]2CCCN2C(=O)[C@H]2CCCN2C(=O)[C@H](Cc2ccccc2)NC(=O)[C@H](Cc2c[nH]cn2)NC(=O)[C@H](CC(N)=O)NC(=O)[C@H](Cc2ccccc2)NC(=O)[C@H](Cc2ccccc2)NC1=O
Consider B2, for which the agonist EC50 (cAMP AlphaScreen, HEK293 cells stably expressing the receptor) in test [7], in test [9] and in test [10] was above 100 µM in each case.

B3: c[Pro-Arg-Phe-Phe-Asn-Glu-Phe-DPro] (peptide)
peptide: cyclo(PRFFNEF[dP])
SMILES: N=C(N)NCCC[C@@H]1NC(=O)[C@@H]2CCCN2C(=O)[C@H]2CCCN2C(=O)[C@H](Cc2ccccc2)NC(=O)[C@H](CCC(=O)O)NC(=O)[C@H](CC(N)=O)NC(=O)[C@H](Cc2ccccc2)NC(=O)[C@H](Cc2ccccc2)NC1=O
With B3, the agonist EC50 (cAMP AlphaScreen, HEK293 cells stably expressing the receptor) in test [7], in test [9] and in [10] was above 100 µM each time.

B4: c[Pro-Arg-Phe-Phe-Phe-Ala-Phe-DPro] (peptide)
peptide: cyclo(PRFFFAF[dP])
SMILES: C[C@@H]1NC(=O)[C@H](Cc2ccccc2)NC(=O)[C@H](Cc2ccccc2)NC(=O)[C@H](Cc2ccccc2)NC(=O)[C@H](CCCNC(=N)N)NC(=O)[C@@H]2CCCN2C(=O)[C@H]2CCCN2C(=O)[C@H](Cc2ccccc2)NC1=O
Consider B4, for which the agonist EC50 (cAMP AlphaScreen, HEK293 cells stably expressing the receptor) in [7], in test [8], in test [9] and in test [10] was above 100 µM each time.
